Results taken from publication PMC4436593, “Endoplasmic reticulum stress-independent activation of unfolded protein response kinases by a small molecule ATP-mimic” (eLife, 2015).

What was measured:
[1] = system: XBP1 mRNA splicing in HEK293T cells; test: XBP1 mRNA splicing by RT-PCR in HEK293T cells; format: cell-based, human; details: for XBP1 mRNA splicing (in words): IPAx 2 µM, 4 hr
Procedure: To examine the effects of IPA in living cells, we monitored the UPR in HEK293T cells using RT-PCR to measure splicing of XBP1 mRNA. […] At a concentration of 2 μM IPA, splicing was induced within 2 hr (lane 5). […] We used tunicamycin (Tm), which induces ER stress by blocking N-linked glycosylation, as a positive control to induce the UPR (Figure 2A, lanes 7, and Figure 2B, lane 4).
Cells were lysed and total RNA was collected (Total RNA Kit 1, EZ-RNA, EZNA [USA]). PolyA^+ mRNA was reverse transcribed with M-MLV (Invitrogen), and the resulting cDNA was used as a template for PCR amplification across the fragment of XBP1 cDNA containing the intron. Primers used to amplify human XBP1: 5′-[…]-3′ and 5′-[…]-3′. To amplify murine XBP1: 5′-[…]-3′ and 5′-[…]-3′. PCR conditions were as follows: 95°C for 5 min, 95°C for 1 min, 58°C for 30 s, 72°C for 30 s, and 72°C for 5 min, with 20 cycles of amplification. PCR products were resolved on a 2.5% agarose tris-acetate EDTA (TAE) gel. As previously reported, a hybrid amplicon species consisting of unspliced Xbp-1 annealed to spliced Xbp-1 can also be produced through this PCR reaction and was visible as a slower migrating band above the unspliced amplicon. The same cDNA was used as template for PCR of DERLIN-3 and HERPUD1, both ATF6 targets, and GAPDH, which was used as loading control. Primers used included the following: DERLIN-3, 5′-[…]-3′ and 5′-[…]-3′; HERPUD1-1, 5′-[…]-3′ and 5′-[…]-3′; GAPDH, 5′-[…]-3′ and 5′-[…]-3′. PCR conditions were: 95°C × 5 min, 95°C × 1 min, 56°C × 30 s, 72°C for 30 s for 25 cycles, 72°C for 5 min at 4°C. PCR products were resolved on a 2% agarose TAE gel.

[2] = target: T1, PERK cytosolic domain (535–1093 Δ660–868) (Homo sapiens, UniProt Q9NZJ5, DEL660-868); test: In vitro PERK cross-linking assay; format: biochemical; details: PERK 2 μM; IPAx 50 μM
T1 construct: GST (N, cleaved yes); made in house; host or cells: E. coli BL21 star (DE3), co-expressed with lambda phosphatase
T1 sequence (Q9NZJ5 with tags, fused parts or gaps DEL660-868): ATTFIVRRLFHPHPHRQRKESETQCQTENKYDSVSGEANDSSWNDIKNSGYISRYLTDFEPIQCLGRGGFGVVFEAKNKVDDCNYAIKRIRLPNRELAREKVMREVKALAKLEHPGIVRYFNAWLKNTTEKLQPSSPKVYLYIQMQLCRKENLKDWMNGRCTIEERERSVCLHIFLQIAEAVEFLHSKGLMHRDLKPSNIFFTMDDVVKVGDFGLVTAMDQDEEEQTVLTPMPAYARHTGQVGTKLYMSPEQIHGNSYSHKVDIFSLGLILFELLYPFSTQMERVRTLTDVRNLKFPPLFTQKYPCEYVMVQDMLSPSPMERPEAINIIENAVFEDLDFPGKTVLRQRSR
Procedure: A solution of PERK cytosolic domain (535–1093 Δ660–868) (2 μM) was incubated with IPA or IPAx for 15 min before the addition of 250 μM of the amino group-reactive cross-linking agent bis[sulfosuccinimidyl] […] (BS2g-d0, Thermo Scientific). After 30-min incubation at room temperature Tris-HCl pH 7.5 was added to a final concentration of 55 mM. Samples were then boiled in Laemmli sample buffer and loaded into an Any kD Mini-protean TGX gel (Bio Rad). Cross-linked protein was visualized using Colloidal Coomassie G-250 stain.

[3] = target: IRE1α-KR43 (Homo sapiens, UniProt O75460); test: IRE1α-KR43 RNA cleavage assay with 5′ [32P]-labeled RNA substrate HP21 (kobs, single turnover); format: biochemical; set-up: IRE1α-KR43 comprises the soluble cytoplasmic portion of IRE1α, composed of the kinase and RNase domains plus 43 amino acids of the linker; 6xHis (N, cleaved yes); made in house; host or cells: SF21 insect cells; details: for 1/2kmax, obs (IRE1α-KR43 concentration at half-maximal kobs) / Hill coefficient n: RNase activity as a function of IRE1α-KR43 concentration
Sequence of IRE1α-KR43 (O75460 465-977 limits assumed): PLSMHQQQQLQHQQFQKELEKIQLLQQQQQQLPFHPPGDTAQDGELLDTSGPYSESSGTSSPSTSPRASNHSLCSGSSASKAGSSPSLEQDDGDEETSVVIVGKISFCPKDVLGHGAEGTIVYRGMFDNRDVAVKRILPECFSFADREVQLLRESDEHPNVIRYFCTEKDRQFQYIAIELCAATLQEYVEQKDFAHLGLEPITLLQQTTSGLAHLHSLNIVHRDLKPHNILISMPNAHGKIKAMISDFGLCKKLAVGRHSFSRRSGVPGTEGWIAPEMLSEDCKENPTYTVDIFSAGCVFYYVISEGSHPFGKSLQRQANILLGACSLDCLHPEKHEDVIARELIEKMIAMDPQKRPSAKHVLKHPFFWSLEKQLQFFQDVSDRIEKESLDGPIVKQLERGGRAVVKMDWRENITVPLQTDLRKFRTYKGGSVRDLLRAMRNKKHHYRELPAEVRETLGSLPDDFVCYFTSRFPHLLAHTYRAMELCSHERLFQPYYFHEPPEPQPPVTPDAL
Procedure: To this end, we modified the molecule by substituting urea-linked and variably m- and p-substituted phenyl groups for the benzimidazole of APY29. Diphenyl urea linkers have previously been used successfully in the design of kinase inhibitors ([Dar et al., 2008]; [Dar and Shokat, 2011]; [Korennykh et al., 2012]). In exploring the addition of this chemotype on the APY29 scaffold, we generated a panel of 10 variants (Figure 1B). Each member of the panel was tested in an RNase activity assay using recombinant IRE1α-KR43 and a labeled short hairpin RNA substrate derived from human XBP1 mRNA. IRE1α-KR43 comprises the soluble cytoplasmic portion of IRE1α, composed of the kinase and RNase domains plus 43 amino acids of the linker that bridges the kinase to its transmembrane domain.
Human IRE1α-KR43 with a hexa-histidine (6xHis) tag in its N-terminus was expressed and purified in SF21 cells as described ([Li et al., 2010]). Cells were lysed in buffer containing 20 mM Tris-HCl, pH 7.5, 600 mM NaCl, 2 mM MgCl2, 3 mM imidazole, 10% glycerol, 1% Triton X-100, 3 mM β-mercaptoethanol, COMPlete protease inhibitors (Roche), and PhosSTOP phosphatase inhibitor cocktail (Roche) and passed through an AVESTIN emulsiflex-C3 3× times for complete lysis. The lysate was cleared using centrifugation at 100,000×g. Clear lysate was allowed to incubate on Ni-NTA agarose (Qiagen) beads for 2 hr before being washed 3× times with buffer containing 20 mM Tris-HCl, pH7.5, 600 mM NaCl, 2 mM MgCl2, 30 mM imidazole, 10% glycerol, and 3 mM β-mercaptoethanol. Protein was eluted from the column by raising the imidazole concentration to 250 mM. The eluate was then passed through a HiTrap desalting column (GE Healthcare). Lastly, the 6xHis was cleaved as described ([Li et al., 2010]) and the resulting protein was then loaded onto a HisTrap HP, 5 × 5 ml column to remove the uncleaved protein. The cleaved protein was then loaded on a Mono-S 5/50 GL column (GE Healthcare), and the eluate was then concentrated to 5 mg/ml and loaded on a Superdex 200 HR 10/300 (GE Healthare) column in buffer containing 20 mM Tris-HCl pH 7.5, 250 mM NaCl, 5% Glycerol and 5 mM tris(2-carboxyethyl)phosphine (TCEP). The pure protein solution was aliquoted and stored at −80°C.

IRE1α activation as a function of enzyme concentration (in words) ([3]; compound 20 μM, versus no-compound control)	IRE1α RNase activation (in words) ([3]; compounds 1 μM, IRE1α-KR43 200 nM, versus DMSO control or cmp6/cmp7)	Compound	time until XBP1 mRNA splicing was induced ([1]; 2 μM IPA) [h]	XBP1 mRNA splicing (in words) [1]	PERK oligomerization (cross-linked dimers, trimers, tetramers) [2]	fold lower enzyme concentration at ½ kmax, obs versus no activator ([3]; compound 20 μM) [fold]	1/2kmax, obs (IRE1α-KR43 concentration at half-maximal kobs) ([3]; compound 20 μM) [µM]	Hill coefficient n ([3]; compound 20 μM)	fold activation of IRE1α-KR43 RNase activity ([3]; compounds 1 μM, IRE1α-KR43 200 nM, [32P]-labeled HP21) [fold]
–	–	CSc1ccc(NC(=O)Nc2ccc(Nc3nccc(Nc4cc(C5CC5)[nH]n4)n3)cc2)cc1 [IPA]	≤ 2	induced XBP1 mRNA splicing in a time- and dose-dependent manner	significantly increased PERK oligomerization	20	0.43	4.2	900
did not enhance IRE1α activation	inactive	CSc1ccc(NC(=O)Nc2ccc(Nc3nccc(Nc4cc(C5CC5)n(C)n4)n3)cc2)cc1 [IPAx]	–	did not induce XBP1 mRNA splicing	showed no effect	–	8	3.3	–
